Assay results reported in patent US6770624B2, “Treatment of heart failure with growth hormone” (The Regents of the University of California, priority 1997, dated 2004).

Experiments:
AT1 receptor = experiment: Angiotensin II dose-response curves for changes in carotid arterial pressure (confirmation of AT1 receptor blockade); format: in vivo, rat; conditions: losartan 2 g/L in drinking water for 2 weeks; normal rats and rats with chronic MI
Experimental: In order to confirm AT1 receptor blockade with losartan, angiotensin II dose-response curves for changes in carotid arterial pressure were carried out in an additional 14 female Sprague-Dawley rats (260-300 g/each). Eight rats were normal, 4 untreated and 4 treated for 2 weeks with losartan (2 g/L in drinking water). In 6 rats a large MI was produced 3 to 4 weeks prior to study, of which 3 received losartan (2 g/L in drinking water) for 2 weeks and 3 were untreated.

normal rats = experiment: Body, organ and cardiac weights in normal rats after AT1 blockade and GH; format: in vivo, rat; conditions: mean ± SD, n=8
Experimental: Normal Rats: Normal female Sprague Dawley rats (240-260 g each) were randomized to one of the following four groups: rats receiving placebo for 6 weeks (Control group, n=8); rats treated with placebo for 6 weeks with concomitant rhGH (2 mg/kg bid) for the final 2 weeks (GH group, n=8); rats treated with relatively low-dose losartan (L) (20 mg/kg/day in drinking water) for 6 weeks with concomitant rhGH (2 mg/kg/bid, SC) during the final 2 weeks (LowL+GH, n=8); and rats treated with high dose L (2 g/L in drinking water) for 6 weeks with concomitant rhGH (2 mg/kg/bid, SC) during the final 2 weeks (HighL+GH, n=8). In these 32 animals, the responses of body weight (BW) and the weights of the heart and other selected organs were then examined.
After the hemodynamic measurements, the rats were euthanized and wet weights of heart and other selected organs, including liver, spleen, and kidney, were measured. Cardiac fixation was then performed as described by R. L. Duerr (1996) supra. In brief, polyethylene catheters were introduced into the LV apex and the descending aorta. The LV chamber was filled from a reservoir and maintained at 10 mmHg. After washout of blood from the coronary arteries with heparinized saline, the myocardium was perfused retrogradely from the aorta with 10% buffered formalin at a constant pressure of 60 mmHg for 20 minutes. The heart was then excised and immersed in 10% formalin for 24 hours. Subsequently, the atria and adhesions were dissected away and the right ventricle (RV) and LV were separated and weighted, the interventricular septum being included with the LV. The right tibia was dissected and its length from the condyles to the tip of the medial malleolus was measured with a micrometer caliper by the method of Yin et al., Am J Physiol (1982); 243. To compare heart weights among groups, the weights were normalized by tibial length (TL) as well as by body weight (BW).

Compound	shift of angiotensin II-blood pressure dose-response curves (AT1 receptor)	BW (body weight) (normal rats; 6 weeks, rhGH final 2 weeks) [g]	Kidney weight (normal rats; 6 weeks, rhGH final 2 weeks) [g]	Liver weight (normal rats; 6 weeks, rhGH final 2 weeks) [g]	Spleen weight (normal rats; 6 weeks, rhGH final 2 weeks) [g]	TL (tibia length) (normal rats; 6 weeks, rhGH final 2 weeks) [cm]	HW/BW (normal rats) [%]	LV/BW (normal rats) [%]	RV/BW (normal rats) [%]	LV wt (normal rats; measured after fixation) [g]	RV wt (normal rats; measured after fixation) [g]	HW (heart weight) (normal rats; measured before fixation) [g]
CCCCc1nc(Cl)c(CO)n1Cc1ccc(-c2ccccc2-c2nn[nH]n2)cc1 [Losartan, losartan]	marked rightward shifts	–	–	–	–	–	–	–	–	–	–	–
GH: recombinant human growth hormone; placebo 6 weeks with rhGH 2 mg/kg bid for the final 2 weeks	–	319.9 ± 15.9	2.30 ± 0.19	13.69 ± 0.94	1.21 ± 0.10	4.05 ± 0.08	0.45 ± 0.04	0.33 ± 0.01	0.08 ± 0.01	1.04 ± 0.06	0.26 ± 0.02	1.42 ± 0.12
